{"source": "patent US20050080103A1", "about": "“Procedure for asthmatic, and other non-invasive surgery for brain tumor cures” (priority 2003, published 2005)", "system": "asthma (attributed by the author to a brain tumor)", "experiment": "Self-treatment of the inventor's asthma by repeated deep inhalation of evaporated free base cocain", "settings": "inventor's self-report", "note": "“Also recorded” adds a separate entry of the source."}
{"smiles": "COC(=O)[C@H]1[C@@H](OC(=O)c2ccccc2)C[C@@H]2CC[C@H]1N2C", "note": "[cocain]", "values": [{"measurement": "Outcome on asthma / asthma attacks", "setting": "one person, evaporated free base piece about 1/10 gram inhaled once per half hour, 32 sessions over 16 hours, outcome realized 4 months later", "value": "effected the cure of my asthma; also recorded: not getting any more asthma attacks"}, {"measurement": "Time until the metabolic use of one inhaled dose came to an end (session duration)", "setting": "one full deep breath of evaporated free base cocain per session", "value": "approximately one half"}]}
